Test results reported in the supplement of paper PMC4862054.

Legend:
Assay in all cases: normalised viability (% of control), CellTiter-Blue; higher = more viable cells (about 100 = DMSO control)
Conditions in all cases: incubation time: 72 h
SK-BR-3 = test system: SK-BR-3
Summary of the method: (§1)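 Plates were quality-checked by Z'-factor and normalised to vehicle (100) and a positive kill control (0). The underlying assay incubated breast cancer cell lines for 72 h on 384-well plates with compound, then added 2.5 µl CellTiter-Blue for 2 h at 37 °C and read at 560/590 nm. The value is normalised viability at a single listed concentration of the series.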

HCC1937 = test system: HCC1937
Summary of the method: as §1

MFM-223 = test system: MFM-223
Summary of the method: as §1

MDA-MB-436 = test system: MDA-MB-436
Summary of the method: as §1

MDA-MB-453 = test system: MDA-MB-453
Summary of the method: as §1

HDQ-P1 = test system: HDQ-P1
Summary of the method: as §1

Row | Structure (SMILES) | normalised viability (SK-BR-3; 10 nM) | normalised viability (SK-BR-3; 1000 nM) | normalised viability (SK-BR-3; 10000 nM) | normalised viability (HCC1937; 10 nM) | normalised viability (HCC1937; 1000 nM) | normalised viability (HCC1937; 10000 nM) | normalised viability (MFM-223; 10 nM) | normalised viability (MFM-223; 1000 nM) | normalised viability (MFM-223; 10000 nM) | normalised viability (MDA-MB-436; 10 nM) | normalised viability (MDA-MB-436; 1000 nM) | normalised viability (MDA-MB-436; 10000 nM) | normalised viability (MDA-MB-453; 3 nM) | normalised viability (MDA-MB-453; 30 nM) | normalised viability (MDA-MB-453; 100 nM) | normalised viability (HDQ-P1; 3 nM) | normalised viability (HDQ-P1; 30 nM) | normalised viability (HDQ-P1; 100 nM) | other results
1 | Oc1nc(-c2ccc(C(F)(F)F)cc2)nc2c1CSCC2 [XAV-939] | 99.5% | 104% | 115% | 113% | 89.3% | 122% | 110% | 100% | 86.9% | 122% | 116% | 113% | 104% | 94.2% | 105% | 113% | 104% | 98.6% | 
2 | CC(=O)Nc1ccc(C(=O)Nc2ccccc2N)cc1 [CI-994] |  | 99.4% |  |  | 89.9% |  |  | 102% |  |  | 94.8% |  | 100% |  |  | 125% |  |  | normalised viability (SK-BR-3; 1 nM): 103%; normalised viability (SK-BR-3; 100 nM): 97.8%; normalised viability (HCC1937; 1 nM): 86.9%; normalised viability (HCC1937; 100 nM): 101%; normalised viability (MFM-223; 1 nM): 107%; normalised viability (MFM-223; 100 nM): 109%; normalised viability (MDA-MB-436; 1 nM): 98.7%; normalised viability (MDA-MB-436; 100 nM): 97.2%; normalised viability (MDA-MB-453; 0.3 nM): 100%; normalised viability (MDA-MB-453; 10 nM): 105%; normalised viability (HDQ-P1; 0.3 nM): 113%; normalised viability (HDQ-P1; 10 nM): 108%
3 | N.N.[Cl][Pt][Cl] [Cisplatin] | 99.1% | 105% | 111% | 87% | 106% | 105% | 88.5% | 91% | 99.1% | 102% | 87.1% | 94.8% | 124% | 117% | 110% | 116% | 118% | 111% | 
4 | Cc1ccc(C(=O)Nc2ccc(CN3CCN(C)CC3)c(C(F)(F)F)c2)cc1C#Cc1cnc2cccnn12 [Ponatinib] |  | 71.3% |  |  |  |  |  | 35.7% |  |  | 90.5% |  | 101% |  |  | 126% |  |  | normalised viability (SK-BR-3; 1 nM): 104%; normalised viability (SK-BR-3; 100 nM): 103%; normalised viability (HCC1937; 1 nM): 78.3%; normalised viability (HCC1937; 100 nM): 115%; normalised viability (MFM-223; 1 nM): 100%; normalised viability (MDA-MB-436; 1 nM): 106%; normalised viability (MDA-MB-436; 100 nM): 91.5%; normalised viability (MDA-MB-453; 0.3 nM): 102%; normalised viability (MDA-MB-453; 10 nM): 87.3%; normalised viability (HDQ-P1; 0.3 nM): 102%; normalised viability (HDQ-P1; 10 nM): 115%
5 | CN[C@@H]1C[C@H]2O[C@@](C)([C@@H]1OC)n1c3ccccc3c3c4c(c5c6ccccc6n2c5c31)C(=O)N[C@H]4O [UCN-01] | 101% | 16.5% | 3.68% | 71.7% | 25.6% | 7.84% | 103% | 42.1% | 13.5% | 110% | 47.8% | 12.8% | 98% | 86.8% | 65% | 82.2% | 66.8% | 39.6% | 
6 | C[C@@H](Oc1cc(-c2cnn(C3CCNCC3)c2)cnc1N)c1c(Cl)ccc(F)c1Cl [Crizotinib] | 97.2% | 110% | 5.81% | 38.1% | 89.2% | 7.72% | 75.5% | 73% | 34.1% | 71.3% | 17.1% | 8.24% | 95.2% | 81.3% | 87.6% | 88.4% | 91.3% | 88.6% | 
7 | CC1(C)NC(=O)N(c2ccc([N+](=O)[O-])c(C(F)(F)F)c2)C1=O [Nilutamide] | 100% | 104% | 132% | 105% | 87.3% | 94.7% | 108% | 98.4% | 85.8% | 113% | 110% | 102% | 120% | 87.5% | 109% | 124% | 120% | 112% | 
8 | CNCc1ccc(-c2[nH]c3cc(F)cc4c3c2CCNC4=O)cc1 [Rucaparib] | 97.5% | 98.2% | 78.5% | 55.9% | 72.2% | 52.7% | 95.4% | 99.2% | 61.5% | 103% | 62.6% | 98.2% | 111% | 89.3% | 110% | 87% | 88% | 88.2% | 
9 | C[C@]12CC[C@@H]3c4ccc(O)cc4C[C@@H](CCCCCCCCC[S+]([O-])CCCC(F)(F)C(F)(F)F)[C@H]3[C@@H]1CC[C@@H]2O (stereo not given in full) [Fulvestrant] | 76.9% | 109% | 84.5% | 88.3% | 85.5% | 88.3% | 67.2% | 77.6% | 45.2% | 94.4% | 97.5% | 90.6% | 108% | 81.1% | 93.7% | 83.7% | 92.2% | 94% | 
10 | CN(C)/N=N/c1[nH]cnc1C(N)=O [Dacarbazine] | 104% | 95.3% | 100% | 98% | 87.3% | 98.5% | 90.4% | 89.3% | 104% | 100% | 78.7% | 93.8% | 103% | 102% | 102% | 107% | 100% | 110% | 
11 | CC(C)Cn1cnc2c(N)nc3ccccc3c21 [Imiquimod] | 85% | 91.2% | 115% | 86.2% | 82.5% | 88.5% | 108% | 98.3% | 102% | 94.2% | 92.3% | 96.6% | 94.6% | 105% | 107% | 91.7% | 92% | 96.6% | 
12 | C#Cc1cccc(Nc2ncnc3cc(OCCOC)c(OCCOC)cc23)c1 [Erlotinib] | 91% | 91.2% | 27.6% | 95% | 80.2% | 63.6% | 97.3% | 91.5% | 54.1% | 108% | 83.9% | 74% | 109% | 99.2% | 98% | 108% | 94% | 85% | 
13 | N[C@@H](CSC(c1ccccc1)(c1ccccc1)c1ccccc1)C(=O)O [S-trityl-L-cysteine] |  |  |  |  |  |  |  |  |  |  |  |  |  |  |  |  |  |  | normalised viability (SK-BR-3; 40 nM): 112%; normalised viability (SK-BR-3; 4000 nM): 18.3%; normalised viability (SK-BR-3; 40000 nM): 20.1%; normalised viability (HCC1937; 40 nM): 98.7%; normalised viability (HCC1937; 4000 nM): 24.8%; normalised viability (HCC1937; 40000 nM): 22.6%; normalised viability (MFM-223; 40 nM): 102%; normalised viability (MFM-223; 4000 nM): 100%; normalised viability (MFM-223; 40000 nM): 78.2%; normalised viability (MDA-MB-436; 40 nM): 90.2%; normalised viability (MDA-MB-436; 4000 nM): 78.6%; normalised viability (MDA-MB-436; 40000 nM): 58.2%; normalised viability (MDA-MB-453; 12 nM): 91.7%; normalised viability (MDA-MB-453; 120 nM): 80.9%; normalised viability (MDA-MB-453; 400 nM): 101%; normalised viability (HDQ-P1; 12 nM): 94.4%; normalised viability (HDQ-P1; 120 nM): 92.5%; normalised viability (HDQ-P1; 400 nM): 110%
14 | O=P1(NCCCl)OCCCN1CCCl (stereo not given) [Ifosfamide] | 109% | 117% | 97.8% | 84% | 74.6% | 97.6% | 87.1% | 91.6% | 97.3% | 96.6% | 109% | 102% | 132% | 87.3% | 106% | 94% | 93.9% | 103% | 
